Source: patent publication US20020137929A1, “1 - (3-heterocyclylphenyl) isothiourea, -isourea, -guanidine and -amidine herbicidal agents” (Intellectual Property Department, BASF Aktiengesellschaft, priority 1998, published 2002)

What was measured:
[1] = test system: GLXMAW (Soybean, Williams); test: Preemergence herbicidal evaluation; type: in vivo, Glycine max, (L.) Merr. cv Williams; conditions: rated 4-5 weeks after treatment; for GLXMAW rating: preemergence, 0-9 scale
Outline: (§1)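 Sown cups got a single aqueous acetone spray of test compound (roughly 0.0156–0.500 kg/ha) before seedlings emerged. Evaluation, 4–5 weeks on, used a 0–9 visual scale covering plant stand, vigor, size, malformation, chlorosis and general appearance compared with controls.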

CASOB (Sicklepod) [2] = test: Postemergence herbicidal evaluation; type: in vivo, Cassia obtusifolia; conditions: postemergence
Outline: (§2)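 Two-week seedlings sprayed postemergence at 40 psi; formulation: 1:1 acetone/water, 0.5% TWEEN 20; application ≈0.0156–0.500 kg/ha. Greenhouse grow-out, then 0–9 visual scoring at 4–5 weeks.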

[3] = test system: SAGPY (Arrowhead (Pygmaea)); test: Preemergence weed control under flooded paddy conditions; type: in vivo, Sagittaria pygmaea; conditions: rated 3-4 weeks after treatment
Outline: (§3)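 Flooded-pot preemergence screen with silt loam and seeds in the upper 0.5 cm. Dose about 0.0313 to 0.500 kg/ha, delivered into flood water; visual 0-9 score after 3 to 4 weeks.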

[4] = test system: CHEAL (Lambsquarters, Common); test: Postemergence herbicidal evaluation; type: in vivo, Chenopodium album; conditions: postemergence
Outline: as §2

[5] = test system: TRZAWR (Wheat, Winter, cv Riband); test: Postemergence herbicidal evaluation; type: in vivo, Triticum aestivum; conditions: postemergence
Outline: as §2

[6] = test system: IPOHE (Morningglory, Ivyleaf); test: Preemergence herbicidal evaluation; type: in vivo, Ipomoea hederacea; conditions: rated 4-5 weeks after treatment; for IPOHE rating: preemergence, 0-9 scale
Outline: as §1

MOOVA (Monochoria) = test: Preemergence weed control under flooded paddy conditions; type: in vivo, Monochoria vaginalis; conditions: rated 3-4 weeks after treatment
Outline: as §3

ORYSAT (Rice, Tebonnet) = test: Preemergence herbicidal evaluation; type: in vivo, Oryza sativa, (L.) Tebonnet; conditions: rated 4-5 weeks after treatment; for ORYSAT rating: preemergence, 0-9 scale
Outline: as §1

ECHCG (Barnyardgrass) = test: Postemergence herbicidal evaluation; type: in vivo, Echinochloa crus-galli; conditions: postemergence
Outline: as §2

[7] = test system: CHEAL (Lambsquarters, Common); test: Preemergence herbicidal evaluation; type: in vivo, Chenopodium album; conditions: rated 4-5 weeks after treatment; for CHEAL rating: preemergence, 0-9 scale
Outline: as §1

[8] = test system: IPOHE (Morningglory, Ivyleaf); test: Postemergence herbicidal evaluation; type: in vivo, Ipomoea hederacea; conditions: postemergence
Outline: as §2

ABUTH (Velvetleaf) = test: Preemergence herbicidal evaluation; type: in vivo, Abutilon theophrasti; conditions: rated 4-5 weeks after treatment; for ABUTH rating: preemergence, 0-9 scale
Outline: as §1

AMBEL (Ragweed, Common) [9] = test: Postemergence herbicidal evaluation; type: in vivo, Ambrosia artemisifolia; conditions: postemergence
Outline: as §2

AMBEL (Ragweed, Common) [10] = test: Preemergence herbicidal evaluation; type: in vivo, Ambrosia artemisifolia; conditions: rated 4-5 weeks after treatment; for AMBEL rating: preemergence, 0-9 scale
Outline: as §1

[11] = test system: GLXMAW (Soybean, Williams); test: Postemergence herbicidal evaluation; type: in vivo, Glycine max, (L.) Merr. cv Williams; conditions: postemergence
Outline: as §2

CASOB (Sicklepod) [12] = test: Preemergence herbicidal evaluation; type: in vivo, Cassia obtusifolia; conditions: rated 4-5 weeks after treatment; for CASOB rating: preemergence, 0-9 scale
Outline: as §1

CCS(=O)(=O)NC(=O)CC1SC(=Nc2cc(-n3c(=O)cc(C(F)(F)F)n(C)c3=O)c(F)cc2Cl)N(C)C1=O (stereo not shown) [Compound 105, 2-{{2-Chloro-5-[3,6-dihydro-3-methyl-2,6-dioxo-4-(trifluoromethyl)-1(2H)-pyrimidinyl]-4-fluorophenyl}imino}-N-(ethylsulfonyl)-3-methyl-4-oxo-5-thiazolidineacetamide]
1.0: herbicidal rating CASOB (CASOB (Sicklepod) [2]; rate 0.1250 kg/ha) | AMBEL rating (AMBEL (Ragweed, Common) [10]; 0.1250 kg/ha)
3.0: SAGPY herbicidal effect rating ([3]; 0.0313 kg/ha) | herbicidal rating TRZAWR ([5]; rate 0.0313 kg/ha) | IPOHE rating ([6]; 0.2500 kg/ha) | herbicidal rating ECHCG (ECHCG (Barnyardgrass); rate 0.1250 kg/ha) | herbicidal rating AMBEL (AMBEL (Ragweed, Common) [9]; rate 0.0625 kg/ha) | AMBEL rating (AMBEL (Ragweed, Common) [10]; 0.2500 kg/ha) | herbicidal rating GLXMAW ([11]; rate 0.0156 kg/ha)
9.0: MOOVA herbicidal effect rating (MOOVA (Monochoria); 0.2500 kg/ha) | CHEAL rating ([7]; 0.1250 kg/ha) | CHEAL rating ([7]; 0.2500 kg/ha) | CHEAL rating ([7]; 0.5000 kg/ha) | herbicidal rating IPOHE ([8]; rate 0.0313 kg/ha) | herbicidal rating IPOHE ([8]; rate 0.0625 kg/ha) | herbicidal rating IPOHE ([8]; rate 0.1250 kg/ha) | ABUTH rating (ABUTH (Velvetleaf); 0.2500 kg/ha) | ABUTH rating (ABUTH (Velvetleaf); 0.5000 kg/ha) | herbicidal rating AMBEL (AMBEL (Ragweed, Common) [9]; rate 0.1250 kg/ha)
7.5: herbicidal rating GLXMAW ([11]; rate 0.1250 kg/ha)
4.5: herbicidal rating GLXMAW ([11]; rate 0.0313 kg/ha)
7.0: SAGPY herbicidal effect rating ([3]; 0.2500 kg/ha) | MOOVA herbicidal effect rating (MOOVA (Monochoria); 0.0625 kg/ha) | MOOVA herbicidal effect rating (MOOVA (Monochoria); 0.1250 kg/ha) | ABUTH rating (ABUTH (Velvetleaf); 0.1250 kg/ha)
6.5: herbicidal rating GLXMAW ([11]; rate 0.0625 kg/ha)
5.0: SAGPY herbicidal effect rating ([3]; 0.0625 kg/ha) | SAGPY herbicidal effect rating ([3]; 0.1250 kg/ha) | herbicidal rating IPOHE ([8]; rate 0.0156 kg/ha)
2.0: herbicidal rating CHEAL ([4]; rate 0.0625 kg/ha) | herbicidal rating CHEAL ([4]; rate 0.1250 kg/ha)
6.0: MOOVA herbicidal effect rating (MOOVA (Monochoria); 0.0313 kg/ha)
3.5: herbicidal rating TRZAWR ([5]; rate 0.0156 kg/ha) | herbicidal rating TRZAWR ([5]; rate 0.0625 kg/ha) | herbicidal rating TRZAWR ([5]; rate 0.1250 kg/ha)
4.0: IPOHE rating ([6]; 0.5000 kg/ha) | AMBEL rating (AMBEL (Ragweed, Common) [10]; 0.5000 kg/ha)
0.0: GLXMAW rating ([1]; 0.1250 kg/ha) | GLXMAW rating ([1]; 0.2500 kg/ha) | GLXMAW rating ([1]; 0.5000 kg/ha) | herbicidal rating CASOB (CASOB (Sicklepod) [2]; rate 0.0156 kg/ha) | herbicidal rating CASOB (CASOB (Sicklepod) [2]; rate 0.0313 kg/ha) | herbicidal rating CASOB (CASOB (Sicklepod) [2]; rate 0.0625 kg/ha) | herbicidal rating CHEAL ([4]; rate 0.0156 kg/ha) | herbicidal rating CHEAL ([4]; rate 0.0313 kg/ha) | IPOHE rating ([6]; 0.1250 kg/ha) | ORYSAT rating (ORYSAT (Rice, Tebonnet); 0.1250 kg/ha) | ORYSAT rating (ORYSAT (Rice, Tebonnet); 0.2500 kg/ha) | ORYSAT rating (ORYSAT (Rice, Tebonnet); 0.5000 kg/ha) | herbicidal rating ECHCG (ECHCG (Barnyardgrass); rate 0.0156 kg/ha) | herbicidal rating ECHCG (ECHCG (Barnyardgrass); rate 0.0313 kg/ha) | herbicidal rating ECHCG (ECHCG (Barnyardgrass); rate 0.0625 kg/ha) | herbicidal rating AMBEL (AMBEL (Ragweed, Common) [9]; rate 0.0156 kg/ha) | herbicidal rating AMBEL (AMBEL (Ragweed, Common) [9]; rate 0.0313 kg/ha) | CASOB rating (CASOB (Sicklepod) [12]; 0.1250 kg/ha) | CASOB rating (CASOB (Sicklepod) [12]; 0.2500 kg/ha) | CASOB rating (CASOB (Sicklepod) [12]; 0.5000 kg/ha)

C=CCOC(=O)CN1C(=O)CSC1=Nc1cc(-n2c(=O)cc(C(F)(F)F)n(C)c2=O)c(F)cc1Cl [Compound 106, Allyl 2-{{2-chloro-5-[3,6-dihydro-3-methyl-2,6-dioxo-4-(trifluoromethyl)-1(2H)-pyrimidinyl]-4-fluorophenyl}imino}-4-oxo-3-thiazolidineacetate]
7.5: IPOHE rating ([6]; 0.1250 kg/ha)
0.0: Preemergence herbicidal rating CASOB (CASOB (Sicklepod) [12]; rate 0.0156 kg/ha)
8.0: Preemergence herbicidal rating CHEAL ([7]; rate 0.0156 kg/ha) | ABUTH rating (ABUTH (Velvetleaf); 0.0625 kg/ha)
7.0: SAGPY herbicidal effect rating ([3]; 0.2500 kg/ha) | herbicidal rating CHEAL ([4]; rate 0.0158 kg/ha) | herbicidal rating CHEAL ([4]; rate 0.0315 kg/ha) | herbicidal rating CHEAL ([4]; rate 0.0630 kg/ha) | IPOHE rating ([6]; 0.0625 kg/ha) | herbicidal rating ECHCG (ECHCG (Barnyardgrass); rate 0.0630 kg/ha) | herbicidal rating AMBEL (AMBEL (Ragweed, Common) [9]; rate 0.0158 kg/ha) | herbicidal rating AMBEL (AMBEL (Ragweed, Common) [9]; rate 0.0315 kg/ha) | AMBEL rating (AMBEL (Ragweed, Common) [10]; 0.1250 kg/ha)
9.0: IPOHE rating ([6]; 0.2500 kg/ha) | MOOVA herbicidal effect rating (MOOVA (Monochoria); 0.0313 kg/ha) | MOOVA herbicidal effect rating (MOOVA (Monochoria); 0.0625 kg/ha) | MOOVA herbicidal effect rating (MOOVA (Monochoria); 0.1250 kg/ha) | MOOVA herbicidal effect rating (MOOVA (Monochoria); 0.2500 kg/ha) | CHEAL rating ([7]; 0.0313 kg/ha) | CHEAL rating ([7]; 0.0625 kg/ha) | CHEAL rating ([7]; 0.1250 kg/ha) | CHEAL rating ([7]; 0.2500 kg/ha) | herbicidal rating IPOHE ([8]; rate 0.0158 kg/ha) | herbicidal rating IPOHE ([8]; rate 0.0315 kg/ha) | herbicidal rating IPOHE ([8]; rate 0.0630 kg/ha) | ABUTH rating (ABUTH (Velvetleaf); 0.1250 kg/ha) | ABUTH rating (ABUTH (Velvetleaf); 0.2500 kg/ha) | herbicidal rating AMBEL (AMBEL (Ragweed, Common) [9]; rate 0.0630 kg/ha) | AMBEL rating (AMBEL (Ragweed, Common) [10]; 0.2500 kg/ha)
6.5: ABUTH rating (ABUTH (Velvetleaf); 0.0313 kg/ha)
4.0: SAGPY herbicidal effect rating ([3]; 0.0625 kg/ha) | CASOB rating (CASOB (Sicklepod) [12]; 0.1250 kg/ha)
2.5: herbicidal rating TRZAWR ([5]; rate 0.0158 kg/ha) | IPOHE rating ([6]; 0.0313 kg/ha) | ORYSAT rating (ORYSAT (Rice, Tebonnet); 0.1250 kg/ha)
5.0: GLXMAW rating ([1]; 0.2500 kg/ha) | SAGPY herbicidal effect rating ([3]; 0.1250 kg/ha) | ORYSAT rating (ORYSAT (Rice, Tebonnet); 0.2500 kg/ha) | Preemergence herbicidal rating ABUTH (ABUTH (Velvetleaf); rate 0.0156 kg/ha) | AMBEL rating (AMBEL (Ragweed, Common) [10]; 0.0625 kg/ha)
5.5: herbicidal rating GLXMAW ([11]; rate 0.0315 kg/ha)
1.0: Preemergence herbicidal rating GLXMAW ([1]; rate 0.0156 kg/ha) | herbicidal rating CASOB (CASOB (Sicklepod) [2]; rate 0.0158 kg/ha) | herbicidal rating CASOB (CASOB (Sicklepod) [2]; rate 0.0315 kg/ha) | ORYSAT rating (ORYSAT (Rice, Tebonnet); 0.0313 kg/ha)
4.5: herbicidal rating TRZAWR ([5]; rate 0.0630 kg/ha) | herbicidal rating GLXMAW ([11]; rate 0.0158 kg/ha)
3.0: herbicidal rating CASOB (CASOB (Sicklepod) [2]; rate 0.0630 kg/ha) | SAGPY herbicidal effect rating ([3]; 0.0313 kg/ha) | herbicidal rating TRZAWR ([5]; rate 0.0315 kg/ha)
2.0: GLXMAW rating ([1]; 0.0625 kg/ha) | Preemergence herbicidal rating IPOHE ([6]; rate 0.0156 kg/ha) | ORYSAT rating (ORYSAT (Rice, Tebonnet); 0.0625 kg/ha) | herbicidal rating ECHCG (ECHCG (Barnyardgrass); rate 0.0158 kg/ha) | herbicidal rating ECHCG (ECHCG (Barnyardgrass); rate 0.0315 kg/ha) | CASOB rating (CASOB (Sicklepod) [12]; 0.0625 kg/ha)
6.0: herbicidal rating GLXMAW ([11]; rate 0.0630 kg/ha) | CASOB rating (CASOB (Sicklepod) [12]; 0.2500 kg/ha)
3.5: GLXMAW rating ([1]; 0.1250 kg/ha)
1.5: GLXMAW rating ([1]; 0.0313 kg/ha) | Preemergence herbicidal rating ORYSAT (ORYSAT (Rice, Tebonnet); rate 0.0156 kg/ha) | AMBEL rating (AMBEL (Ragweed, Common) [10]; 0.0313 kg/ha) | Preemergence herbicidal rating AMBEL (AMBEL (Ragweed, Common) [10]; rate 0.0156 kg/ha) | CASOB rating (CASOB (Sicklepod) [12]; 0.0313 kg/ha)
